These results are taken from patent US7420102B2, “Dwarfism genes and dwarf plants” (Wisconsin Alumni Research Foundation, priority 2002, dated 2008).

The subject of assay [1] is L10 mutant plants. Kind of assay: Rescue of mutant phenotype by external application of bioactive GA3, L10 line. In kind it is in vivo, Arabidopsis. An excerpt:
(§1) These phenotypes are similar to loss-of-function alleles of GA biosynthetic enzymes. […] Additionally, other GA forms were also substantially lower in the L10 and 69 lines (Table 4). Both mutant phenotypes could be rescued by the external application of bioactive GA3, which is consistent with the notion that the phenotypes were a result of reduced levels of bioactive GAs.

Assay [2] deals with 69 mutant plants. Kind of assay: Rescue of mutant phenotype by external application of bioactive GA3, 69 line. In kind it is in vivo, Arabidopsis.
Text: as §1

Take `C=C1C[C@]23C[C@@]1(O)CC[C@H]2[C@@]12C=C[C@H](O)[C@@](C)(C(=O)O1)[C@H]2[C@@H]3C(=O)O` [GA3]: in assay [1] (GA3-treated L10 plants), the “Flowering Time LD (Number of Leaves)” value is 8 Number of Leaves, the Height stood at 30 cm, the “Internode Length” value is reported as 7 mm and the “Number of Flowering Branches” value is listed as 65. Moreover, the “Rescue of mutant phenotype” value in assay [1] (external application of GA3 to L10 mutant) is reported as “rescued”. Also, in assay [2] (GA3-treated 69 plants), the “Flowering Time LD (Number of Leaves)” value was 8 Number of Leaves, the Height amounted to 30 cm, the “Internode Length” value was determined as 7 mm and the “Number of Flowering Branches” value stood at 65. For the same compound, the “Rescue of mutant phenotype” value in assay [2] (external application of GA3 to 69 mutant) is listed as “rescued”.
